{"source": "patent US10150760B2", "about": "“Compounds for use in preparing heterocyclic triazole agonists of the APJ receptor” (AMGEN INC., priority 2016, dated 2018)", "note": "pEC50: −log10 of the molar value."}
{"molecular_target": "human APJ receptor (Homo sapiens (Human), UniProt P35414)", "sequence (P35414 whole entry)": "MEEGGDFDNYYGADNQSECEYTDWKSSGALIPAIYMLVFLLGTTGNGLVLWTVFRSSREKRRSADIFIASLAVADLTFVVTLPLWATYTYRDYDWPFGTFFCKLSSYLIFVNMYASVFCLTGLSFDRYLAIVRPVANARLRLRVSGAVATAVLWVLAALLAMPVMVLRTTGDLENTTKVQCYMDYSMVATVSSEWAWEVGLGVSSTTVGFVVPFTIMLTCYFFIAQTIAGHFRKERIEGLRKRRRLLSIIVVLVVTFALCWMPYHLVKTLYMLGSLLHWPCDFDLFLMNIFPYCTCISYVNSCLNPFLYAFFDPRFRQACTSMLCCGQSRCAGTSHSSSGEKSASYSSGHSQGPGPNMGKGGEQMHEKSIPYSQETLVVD", "test": "[35S]GTPγS binding assay on membranes from CHO cells stably expressing human APJ receptor", "format": "biochemical", "details": "read-out: Activity hAPJ SPA EC50 IP", "summary_of_the_method": "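Membranes from CHO cells stably expressing human APJ incubated with ligand, 0.2 nM [35S]GTPγS and WGA SPA beads in HEPES pH 7.5 with 5 mM MgCl2, 200 mM NaCl, 3 μM GDP, 90 min at RT. Nonspecific binding defined with 100 μM GTPγS; EC50 by non-linear regression.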"}
{"molecule": "CO[C@H](c1cnc(C)cn1)[C@H](C)S(=O)(=O)Nc1nnc([C@H]2CCOC2)n1C1(C)CC1", "note": "(single isomer, unassigned) [Example 129.0, (1R,2S)-1-methoxy-N-(4-(1-methylcyclopropyl)-5-((R)-tetrahydrofuran-3-yl)-4H-1,2,4-triazol-3-yl)-1-(5-methylpyrazin-2-yl)propane-2-sulfonamide or (1R,2S)-1-methoxy-N-(4-(1-methylcyclopropyl)-5-((S)-tetrahydrofuran-3-yl)-4H-1,2,4-triazol-3-yl)-1-(5-methylpyrazin-2-yl)propane-2-sulfonamide]", "pEC50": 5.68}
{"molecule": "CO[C@H](c1cnc(C)cn1)[C@H](C)S(=O)(=O)Nc1nnc([C@H]2CCCOC2)n1C1(C)CC1", "note": "(single isomer, unassigned) [Example 130.0, (1R,2S)-1-methoxy-N-(4-(1-methylcyclopropyl)-5-((R)-tetrahydro-2H-pyran-3-yl)-4H-1,2,4-triazol-3-yl)-1-(5-methylpyrazin-2-yl)propane-2-sulfonamide or (1R,2S)-1-methoxy-N-(4-(1-methylcyclopropyl)-5-((S)-tetrahydro-2H-pyran-3-yl)-4H-1,2,4-triazol-3-yl)-1-(5-methylpyrazin-2-yl)propane-2-sulfonamide]", "pEC50": 5.74}
{"molecule": "CO[C@H](c1cnc(C)cn1)[C@H](C)S(=O)(=O)Nc1nnc([C@H]2CCCOC2)n1C1(C)CC1", "note": "(single isomer, unassigned) [Example 131.0, (1R,2S)-1-methoxy-N-(4-(1-methylcyclopropyl)-5-((R)-tetrahydro-2H-pyran-3-yl)-4H-1,2,4-triazol-3-yl)-1-(5-methylpyrazin-2-yl)propane-2-sulfonamide or (1R,2S)-1-methoxy-N-(4-(1-methylcyclopropyl)-5-((S)-tetrahydro-2H-pyran-3-yl)-4H-1,2,4-triazol-3-yl)-1-(5-methylpyrazin-2-yl)propane-2-sulfonamide]", "pEC50": 6.26}
{"molecule": "COc1cccc(OC)c1-n1c(NS(=O)(=O)[C@@H](C)[C@H](C)c2cnc(C)cn2)nnc1[C@H]1CCOC1", "note": "(single isomer, unassigned) [Example 132.0, (2S,3R)-N-(4-(2,6-dimethoxyphenyl)-5-((R)-tetrahydrofuran-3-yl)-4H-1,2,4-triazol-3-yl)-3-(5-methylpyrazin-2-yl)butane-2-sulfonamide or (2S,3R)-N-(4-(2,6-dimethoxyphenyl)-5-((S)-tetrahydrofuran-3-yl)-4H-1,2,4-triazol-3-yl)-3-(5-methylpyrazin-2-yl)butane-2-sulfonamide]", "pEC50": 6.85}
{"molecule": "COc1cccc(OC)c1-n1c(NS(=O)(=O)[C@@H](C)[C@H](C)c2cnc(C)cn2)nnc1[C@H]1CCOC1", "note": "(single isomer, unassigned) [Example 133.0, (2S,3R)-N-(4-(2,6-dimethoxyphenyl)-5-((R)-tetrahydrofuran-3-yl)-4H-1,2,4-triazol-3-yl)-3-(5-methylpyrazin-2-yl)butane-2-sulfonamide or (2S,3R)-N-(4-(2,6-dimethoxyphenyl)-5-((S)-tetrahydrofuran-3-yl)-4H-1,2,4-triazol-3-yl)-3-(5-methylpyrazin-2-yl)butane-2-sulfonamide]", "pEC50": 6.49}
{"molecule": "COc1cccc(OC)c1-n1c(NS(=O)(=O)[C@@H](C)[C@H](C)c2cnc(C)cn2)nnc1[C@H]1CCCOC1", "note": "(single isomer, unassigned) [Example 134.0, (2S,3R)-N-(4-(2,6-dimethoxyphenyl)-5-((R)-tetrahydro-2H-pyran-3-yl)-4H-1,2,4-triazol-3-yl)-3-(5-methylpyrazin-2-yl)butane-2-sulfonamide or (2S,3R)-N-(4-(2,6-dimethoxyphenyl)-5-((S)-tetrahydro-2H-pyran-3-yl)-4H-1,2,4-triazol-3-yl)-3-(5-methylpyrazin-2-yl)butane-2-sulfonamide]", "pEC50": 6.40}
{"molecule": "COc1cccc(OC)c1-n1c(NS(=O)(=O)[C@@H](C)[C@H](C)c2cnc(C)cn2)nnc1[C@H]1CCCOC1", "note": "(single isomer, unassigned) [Example 135.0, (2S,3R)-N-(4-(2,6-dimethoxyphenyl)-5-((R)-tetrahydro-2H-pyran-3-yl)-4H-1,2,4-triazol-3-yl)-3-(5-methylpyrazin-2-yl)butane-2-sulfonamide or (2S,3R)-N-(4-(2,6-dimethoxyphenyl)-5-((S)-tetrahydro-2H-pyran-3-yl)-4H-1,2,4-triazol-3-yl)-3-(5-methylpyrazin-2-yl)butane-2-sulfonamide]", "pEC50": 7.46}
{"molecule": "COc1cccc(OC)c1-n1c(NS(=O)(=O)[C@@H](C)[C@@H](OC(C)C)c2ncc(C)cn2)nnc1[C@H]1CCCOC1", "note": "(single isomer, unassigned) [Example 136.0, (1S,2S)-N-(4-(2,6-dimethoxyphenyl)-5-((R)-tetrahydro-2H-pyran-3-yl)-4H-1,2,4-triazol-3-yl)-1-isopropoxy-1-(5-methylpyrimidin-2-yl)propane-2-sulfonamide or (1S,2S)-N-(4-(2,6-dimethoxyphenyl)-5-((S)-tetrahydro-2H-pyran-3-yl)-4H-1,2,4-triazol-3-yl)-1-isopropoxy-1-(5-methylpyrimidin-2-yl)propane-2-sulfonamide]", "pEC50": 6.89}
{"molecule": "COc1cccc(OC)c1-n1c(NS(=O)(=O)[C@@H](C)[C@@H](OC(C)C)c2ncc(C)cn2)nnc1[C@H]1CCCOC1", "note": "(single isomer, unassigned) [Example 137.0, (1S,2S)-N-(4-(2,6-dimethoxyphenyl)-5-((R)-tetrahydro-2H-pyran-3-yl)-4H-1,2,4-triazol-3-yl)-1-isopropoxy-1-(5-methylpyrimidin-2-yl)propane-2-sulfonamide or (1S,2S)-N-(4-(2,6-dimethoxyphenyl)-5-((S)-tetrahydro-2H-pyran-3-yl)-4H-1,2,4-triazol-3-yl)-1-isopropoxy-1-(5-methylpyrimidin-2-yl)propane-2-sulfonamide]", "pEC50": 8.32}
{"molecule": "COc1ncnc(OC)c1-n1c(NS(=O)(=O)[C@@H](C)[C@H](OC)c2ncc(Cl)cn2)nnc1[C@H]1CCC(C)(C)O1", "note": "(single isomer, unassigned) [Example 138.0, (1R,2S)-1-(5-chloropyrimidin-2-yl)-N-(4-(4,6-dimethoxypyrimidin-5-yl)-5-((S)-5,5-dimethyltetrahydrofuran-2-yl)-4H-1,2,4-triazol-3-yl)-1-methoxypropane-2-sulfonamide or (1R,2S)-1-(5-chloropyrimidin-2-yl)-N-(4-(4,6-dimethoxypyrimidin-5-yl)-5-((R)-5,5-dimethyltetrahydrofuran-2-yl)-4H-1,2,4-triazol-3-yl)-1-methoxypropane-2-sulfonamide]", "pEC50": 6.92}
{"molecule": "COc1cccc(OC)c1-n1c(NS(=O)(=O)[C@@H](C)[C@H](O)c2ncc(C)cn2)nnc1[C@H]1CCOC1", "note": "(single isomer, unassigned) [Example 141.0, (1R,2S)-N-(4-(2,6-dimethoxyphenyl)-5-((S)-tetrahydrofuran-3-yl)-4H-1,2,4-triazol-3-yl)-1-hydroxy-1-(5-methylpyrimidin-2-yl)propane-2-sulfonamide or (1R,2S)-N-(4-(2,6-dimethoxyphenyl)-5-((R)-tetrahydrofuran-3-yl)-4H-1,2,4-triazol-3-yl)-1-hydroxy-1-(5-methylpyrimidin-2-yl)propane-2-sulfonamide]", "pEC50": 6.70}
{"molecule": "COc1cccc(OC)c1-n1c(NS(=O)(=O)CCc2ccc(Cl)cc2)nnc1[C@@H]1CCCO1", "note": "(single isomer, unassigned) [Example 144.0, (S)-2-(4-Chlorophenyl)-N-(4-(2,6-dimethoxyphenyl)-5-(tetrahydrofuran-2-yl)-4H-1,2,4-triazol-3-yl)ethanesulfonamide or (R)-2-(4-chlorophenyl)-N-(4-(2,6-dimethoxyphenyl)-5-(tetrahydrofuran-2-yl)-4H-1,2,4-triazol-3-yl)ethanesulfonamide]", "pEC50": 7.10}
{"molecule": "COc1cccc(OC)c1-n1c(NS(=O)(=O)CCc2ccc(Cl)cc2)nnc1[C@@H]1CCCO1", "note": "(single isomer, unassigned) [Example 145.0, (S)-2-(4-Chlorophenyl)-N-(4-(2,6-dimethoxyphenyl)-5-(tetrahydrofuran-2-yl)-4H-1,2,4-triazol-3-yl)ethanesulfonamide or (R)-2-(4-chlorophenyl)-N-(4-(2,6-dimethoxyphenyl)-5-(tetrahydrofuran-2-yl)-4H-1,2,4-triazol-3-yl)ethanesulfonamide]", "pEC50": 6.08}
{"molecule": "COc1cccc(OC)c1-n1c(NS(=O)(=O)CCc2ccc(F)cc2C#N)nnc1[C@@H]1CCCO1", "note": "(single isomer, unassigned) [Example 147.0, (S)-2-(2-Cyano-4-fluorophenyl)-N-(4-(2,6-dimethoxyphenyl)-5-(tetrahydrofuran-2-yl)-4H-1,2,4-triazol-3-yl)ethanesulfonamide or (R)-2-(2-cyano-4-fluorophenyl)-N-(4-(2,6-dimethoxyphenyl)-5-(tetrahydrofuran-2-yl)-4H-1,2,4-triazol-3-yl)ethanesulfonamide]", "pEC50": 7.43}
{"molecule": "COc1cccc(OC)c1-n1c(NS(=O)(=O)CCc2ccc(F)cc2C#N)nnc1[C@@H]1CCCO1", "note": "(single isomer, unassigned) [Example 148.0, (S)-2-(2-Cyano-4-fluorophenyl)-N-(4-(2,6-dimethoxyphenyl)-5-(tetrahydrofuran-2-yl)-4H-1,2,4-triazol-3-yl)ethanesulfonamide or (R)-2-(2-cyano-4-fluorophenyl)-N-(4-(2,6-dimethoxyphenyl)-5-(tetrahydrofuran-2-yl)-4H-1,2,4-triazol-3-yl)ethanesulfonamide]", "pEC50": 6.17}
{"molecule": "COc1cccc(OC)c1-n1c(NS(=O)(=O)[C@@H](C)[C@H](C)c2ncc(C#N)cn2)nnc1[C@H]1CCOC1", "note": "(single isomer, unassigned) [Example 173.0, (2S,3R)-3-(5-cyano-2-pyrimidin-yl)-N-(4-(2,6-dimethoxyphenyl)-5-((3R)-tetrahydro-3-furanyl)-4H-1,2,4-triazol-3-yl)-2-butanesulfonamide or (2S,3R)-3-(5-cyano-2-pyrimidinyl)-N-(4-(2,6-dimethoxyphenyl)-5-((3S)-tetrahydro-3-furanyl)-4H-1,2,4-triazol-3-yl)-2-butanesulfonamide]", "pEC50": 6.89}
